# Measured values published in a melting point compilation (Tetko et al.; mined from patent text by program, amines drawn as free bases though some values may be those of a salt).
row,SMILES,melting point [°C]
1,C=CC(=O)OCc1cn(-c2ccccc2)nn1,55 to 56
2,COc1cccc(-c2nc3c4ccccc4ccn3n2)c1,159 to 160
3,CCCCC1=NC2(CCCC2)C(=O)N1Cc1ccc(-c2ccccc2S(=O)(=O)Nc2noc(C)c2C)c(COCC)c1,148
4,COc1ccc(N2CCN(CCC3CN(C)C(=O)O3)CC2)cc1 (configuration not stated),103 to 104
5,Cc1nc(N2CCOCC2)sc1C,122 to 123
6,CC(=O)NC[C@H]1CN(c2ccc(N3CCC(COc4ccon4)CC3)c(F)c2)C(=O)O1,163 to 165
7,CC(=O)Nc1ccc(C(=O)O)cc1NC(=O)CO,214 to 215
8,CCN(CCCCCCN)c1ccc2c(=O)[nH][nH]c(=O)c2c1,170
9,CCCCc1nc2ccn(Cc3ccc([N+](=O)[O-])cc3)c(=O)c2n1Cc1ccc([N+](=O)[O-])cc1,142 to 143
10,Cc1[nH]c(C(=O)NCCC(=O)O)c(C)c1-c1nc2ccc(C(=O)c3ccccc3)cc2[nH]1,256 to 258
11,COc1cc(C)nc(-n2nc(C)n(NS(=O)(=O)c3ccccc3OC(F)(F)F)c2=O)n1,248
12,COc1ccc2c(c1)CC(C(N)=O)N2 (configuration not stated),228 to 229
13,COc1ccc(Nc2cccc3c2C(=O)N(C2CCC(=O)NC2=O)C3=O)cc1 (configuration not stated),228 to 230
14,CC(=O)Oc1ccc(C#C[Si](C)(C)C)cc1,45
15,O=C(O)CN(C(=O)CCS)[C@H]1CC[C@H](c2ccccc2)CC1,125 to 130
16,CSCC[C@H](NC(=O)c1cc(NC(Cn2ccnc2)c2ccc(F)cc2)ccc1CCc1ccc(F)cc1)C(=O)O (some centres not stated),115 to 120
17,CCCN=C(N)Nc1ccnc(CCCCc2ncc(C)c(O)n2)n1,213 to 215
18,O=C(CCCN1CCOCC1)Nc1cccc(-c2ccnc3c(C(=O)c4cccs4)cnn23)c1,127 to 133
19,CCCOc1ccnc2[nH]cc(-c3ccnc(N)n3)c12,> 210
20,COC(=O)c1ccc(OCc2ccccc2)c(OC2CCCC2)c1,58 to 59
21,NCCCP(=O)(O)CC(O)CN1C(=O)c2ccccc2C1=O (configuration not stated),268 to 271
22,CCCc1ccccc1OS(=O)(=O)c1ccc(N2CCN(C)C2=O)cc1,103 to 105
23,O=C1CCCC(=O)N1Nc1ccc([N+](=O)[O-])cc1,197 to 198
24,CN(C)C=C(C(=O)c1ccc(Cl)cc1)c1ccccc1[N+](=O)[O-],142 to 148
25,O=C(Nc1ccc(F)cc1)c1ccccc1SSc1ccccc1C(=O)Nc1ccc(F)cc1,242 to 244
26,O=C(O)Cc1n[nH]c2c(=O)[nH]c3cc(Cl)ccc3c(=O)c12,297 to 300

row,SMILES,melting point [°C]
1,COc1ccc(C(=O)Nc2c(C)c(C)c3c(c2C)C(c2ccc(C)cc2)C(C)(C)O3)cc1OC (configuration not stated),169 to 171
2,O=C1c2ccccc2S(=O)CC1(CO)CO (configuration not stated),108 to 111
3,COc1ccc(CCNc2cc(-c3ccco3)nc(-c3nccs3)n2)cc1OC,83 to 83.8
4,c1ccc(-c2nc(-c3ccc4c(c3)OCO4)sc2-c2ccccc2)cc1,121 to 124
5,CS(=O)(=O)c1ccc(-c2cnn(Cc3ccccc3)c(=O)c2-c2ccc(Cl)c(Cl)c2)cc1,161 to 163
6,CCOC(=O)Cc1nn2c(-c3ccc(OC)cc3)nnc2c2ccccc12,201 to 202
7,O=C(O)C1CCCCC1(O)C(=O)c1ccccc1 (configuration not stated),165 to 167
8,CCCc1nc2c(N)nc3ccccc3c2n1Cc1cc(-c2cccnc2)on1,206 to 207
9,COc1ccc(C2(/C=C/c3cccc(C#N)c3)CCC(=O)CC2)cc1OC1CCCC1,116 to 117
10,CN(C)c1ccc(NC(=O)N(CC2CCC(CN(C(=O)Nc3ccc(N(C)C)cc3)C3CC4CCC3C4)CC2)C2CC3CCC2C3)cc1 (configuration not stated),188 to 191
11,CC(=O)/C(=C(/Br)I)c1ccccc1,53 to 55
12,O=C(OCc1ccccc1)[C@@H](CC1=CCCC1)OS(=O)(=O)c1ccccc1[N+](=O)[O-],122 to 124
13,CCCCN[C@@H]1CN(CC)C[C@H]1O (relative stereo),57.5 to 59
14,O=S(=O)(Cc1ccccc1)N(c1ncc(-c2ccccc2)nc1Cc1ccccc1)S(=O)(=O)Cc1ccccc1,71.5 to 74.5
15,CCc1cn(C2CC(O)C(CCC(O)Cc3c(Cl)cccc3Cl)O2)c(=O)[nH]c1=O (mixture of isomers),185 to 186
16,COc1cc(C=CC(=O)O)ccc1NC(C)=O,222 to 230
17,O=C(CCc1nnc(-c2ccc3c(c2)CCO3)o1)c1cccs1,151 to 152
18,Fc1ccc(CNc2nc(OCc3ccccc3)nc(OCc3ccccc3)n2)cc1,157 to 159
19,CC(C)(C)C1=CC(=Cc2cccc([N+](=O)[O-])c2)C=C(C(C)(C)C)C1=O,118
20,CCCN(CCC)[C@H]1Cc2c[nH]c3ccc(C(=O)NN)c(c23)C1,137 to 138
21,O=c1[nH]c(=O)n(-c2ccccc2)n1-c1ccccc1,216 to 217
22,COC(=O)c1ccc(S(=O)(=O)n2c(=O)[nH]c3cc(Cl)ccc3c2=O)cc1,> 230
23,CCOC(=O)c1ccc(OCCCc2ccc(OC)c(OC)c2)cc1,70 to 71
24,COc1ccc(N2CCN(c3c(C)c(C)c4c(c3C)C(c3ccc(OC(F)(F)F)cc3)C(C)(C)O4)CC2)cc1 (configuration not stated),147 to 148
25,CCN(CC)CCNC(=O)c1ccc(S(N)(=O)=O)cc1,174 to 176
26,COc1cc(C(C)C)c(Oc2c(N)nc(N)nc2C2COC(C)(C)OC2)cc1I,167 to 168

row,SMILES,melting point [°C]
1,COc1ccc(S(=O)(=O)n2c(CCC(=O)O)cc3cc(Cl)ccc32)cc1,95 to 98
2,Oc1ccc(-c2nnc(CSCCCOc3ccccc3)o2)cc1,122 to 127
3,CC(C)C(=O)NC(C)(C)C,117 to 119
4,CC(Cl)C(=O)c1ccc2c(c1)CC(=O)N2 (configuration not stated),157 to 158
5,CS(=O)(=O)c1c[nH]c(=O)c(I)c1,273 to 276
6,COc1ccc2ncn(C3CCN(C(C)c4ccccc4)CC3)c(=O)c2c1 (configuration not stated),124
7,CN1CCN(C(=O)c2c(N3CCN(C(=O)c4ccco4)CC3)n(-c3ccccc3)c3ccccc23)CC1,180 to 181
8,N#Cc1ccccc1C(Cl)(Cl)Cl,98.9 to 100
9,CCC(CC)c1nn(-c2ccc(C(F)(F)F)cn2)cc1CCCOc1c(CC(=O)O)cccc1OC,100 to 101
10,CC(C)Cn1nc(-c2ccccc2)cc(C(=O)O)c1=O,120 to 121
11,CN(C)CCCCc1ccc(CO)o1,24
12,COc1ccc(-c2ccc(C(=O)Nc3cc4ncc(CN5CCCC5)cc4cc3Cl)cc2)cc1,184
13,CCCCCN1CCN(O)C1=O,60 to 61
14,CCN(CC)CCNc1ccc2c3c(nn2CCO)-c2c(O)ccc(O)c2C(=O)c13,231 to 234
15,COC(=O)c1ccccc1-n1c(CCl)nc2cc(Cl)ccc2c1=O,150 to 152
16,CCc1nc(-c2ccc(Cl)cc2)c(CCC(=O)O)o1,160 to 161
17,Cc1c(NC(=O)c2ccc(OC[C@@H]3CCCO3)cc2)ccc2cc(CN3CCC(C)(O)CC3)n(C)c12,140 to 141
18,COc1ccc(C2=NN(C3CCN(C(=O)N4CCNC4=O)CC3)C(=O)[C@H]3CC=CC[C@@H]23)cc1Cl (relative stereo),216 to 218
19,Cc1[nH]c2ccnn2c(=O)c1CCO,225 to 226
20,CCCn1c(=O)c2[nH]c(C3CCC(C(=O)OC)C3)nc2n(CCC)c1=O (configuration not stated),188 to 194
21,CCOC(=O)Cc1cccc(Sc2ccccc2Cl)c1[N+](=O)[O-],78 to 80
22,COc1cccc(C(=O)Nc2ccc(N3CCCC3)cc2C(C)=O)c1OC,137 to 140
23,FC(F)(F)c1cccc(N2CCN(Cc3cn4cc(Cl)ccc4n3)CC2)c1,145 to 146
24,CCN(CC)c1ccc(-c2cc(-c3ccc(C(=O)O)cc3)ccc2CCCNC2CC2)cc1C(C)(C)C,189
25,O=C(Nc1cccc(C(F)(F)F)c1)N1COc2cc(O)ccc21,173 to 174
26,c1ccc(CSc2ncnc3c(N4CCOCC4)nc(N4CCNCC4)nc23)cc1,191 to 193

row,SMILES,melting point [°C]
1,Cc1nnc(-c2ccnc(N)c2)o1,216 to 217
2,CCC(=O)NCCC1CCc2ccc3c(c21)OCO3 (configuration not stated),102 to 104
3,CC(=O)C1=CCC2C3CCC4CC(OS(=O)(=O)c5ccc(C)cc5)CCC4(C)C3CCC12C (configuration not stated),146 to 148
4,CCN(CC)C(=O)c1nc(-c2ccccc2)c2ccccc2n1,101
5,CC(=O)C=Cc1cccc(OCCF)c1OCCF,71 to 72
6,O=C(O)c1cc(C(F)(F)F)ccc1O,149 to 151
7,CCCCCN(CCC12CC3CC(CC(C3)C1)C2)C(=O)NCCCc1ccnc2ccccc12,80.2 to 102
8,COC(=O)C1=C(N)CCC1,95 to 96
9,Oc1ccc(-c2nc3ccc(O)cc3o2)cc1,> 300
10,CN(C)C(=O)Nc1ccc(O)c([N+](=O)[O-])c1,142
11,COC(CNC(=O)CCN1C(=O)N(C)C(=O)C1(C)C)OC,86.4
12,CON=C(C#N)c1ccccc1COc1cccc(Cl)c1,62 to 63
13,CCOC(=O)C1C(=O)N(CC)c2cc3cc(C)oc3cc21 (configuration not stated),82 to 90
14,Oc1ccccc1C=Nc1ccc(O)c2ccccc12,154 to 157
15,O=C1CN(c2cccc(CF)c2)NC(=O)N1,169 to 170
16,NS(=O)(=O)c1ccc(CCNC(=O)c2nc(-c3ccccc3)no2)cc1,217 to 218
17,CCOC(=O)C(=O)c1csc(NC(=O)Nc2ccc(OC)cc2)n1,193 to 196
18,CCCNC(=O)C1(CCCCNc2ccc(Br)nc2)c2ccccc2-c2ccccc21,67 to 69
19,Nc1ccc(OCc2nnco2)cc1,56 to 57
20,Cn1cc(C2=NOCCO2)c(Cl)n1,112
21,O=C(NCc1ccccc1)c1ccnc(N2CCC(c3ccccc3)CC2=O)c1 (configuration not stated),55 to 60
22,CCCCCCCCCCNC(=O)[C@@H]1C[C@H]1c1ccc([N+](=O)[O-])cc1 (relative stereo),127 to 129
23,COc1ccc(NN=C(Sc2ccc(Cl)cc2)C(C)=O)cc1,112 to 114
24,CCCCCc1nc2c(Nc3ccc(Cl)c(Cl)c3)nc3ccccc3c2[nH]1,195 to 200
